Earlier results as cited in patent US12576020B2, “Increasing the stability of agents for the treatment of keratinous material” (Henkel AG & Co. KGaA, priority 2019, dated 2026).

Conditions: 25° C.

Row | Compound | solubility in water | solubility in water (in words)
1 | O=S(=O)([O-])c1ccc(N=Nc2c(O)ccc3ccccc23)cc1.[Na+] [Acid Orange 7, sodium salt of 4-[(2-hydroxy-1-naphthyl)azo]benzene sulphonate] | more than 7 g/L | 
2 | Nc1cc(S(=O)(=O)[O-])cc2cc(S(=O)(=O)[O-])c(N=Nc3ccccc3)c(O)c12.[Na+].[Na+] [Acid Red 33, disodium salt of 5-amino-4-hydroxy-3-(phenylazo)-naphthalene-2,7-disulphonate] | 2500 µg/mL | 
3 | O=C([O-])c1c(Cl)c(Cl)c(Cl)c(Cl)c1-c1c2c(Br)cc(=O)c(Br)c-2oc2c(Br)c(O)cc(Br)c12.O=C([O-])c1c(Cl)c(Cl)c(Cl)c(Cl)c1-c1c2c(Br)cc(=O)c(Br)c-2oc2c(Br)c(O)cc(Br)c12.[Na+].[Na+] [Acid Red 92, disodium salt of 3,4,5,6-tetrachloro-2-(1,4,5,8-tetrabromo-6-hydroxy-3-oxoxanthen-9-yl)benzoic acid] | greater than 10 g/L | 
4 | O=C([O-])C1=NN(c2ccc(S(=O)(=O)[O-])cc2)C(=O)C1N=Nc1ccc(S(=O)(=O)[O-])cc1.[Na+].[Na+].[Na+] (stereo not shown) [Acid Yellow 23, tisodium salt of 4,5-dihydro-5-oxo-1-(4-sulfophenyl)-4-((4-sulfophenyl)azo)-1H-pyrazole-3-carboxylic acid] |  | highly soluble
